According to patent US20120270884A1, “Methods of Treating Aneurysmal Dilatation, Blood Vessel Wall Weakness and Specifically Abdominal Aortic and Thoracic Aneurysm Using Matrix Metalloprotease-2 Inhibitors” (SYMPHONY EVOLUTION, INC., priority 2009, published 2012):

How the values were obtained:
Format in all cases: biochemical
[1] = biological target: T1, MMP-1 (Fibroblast collagenase) (Homo sapiens, UniProt P03956); assay: In vitro metalloprotease inhibition, MMP-1
T1 sequence (P03956 100-469): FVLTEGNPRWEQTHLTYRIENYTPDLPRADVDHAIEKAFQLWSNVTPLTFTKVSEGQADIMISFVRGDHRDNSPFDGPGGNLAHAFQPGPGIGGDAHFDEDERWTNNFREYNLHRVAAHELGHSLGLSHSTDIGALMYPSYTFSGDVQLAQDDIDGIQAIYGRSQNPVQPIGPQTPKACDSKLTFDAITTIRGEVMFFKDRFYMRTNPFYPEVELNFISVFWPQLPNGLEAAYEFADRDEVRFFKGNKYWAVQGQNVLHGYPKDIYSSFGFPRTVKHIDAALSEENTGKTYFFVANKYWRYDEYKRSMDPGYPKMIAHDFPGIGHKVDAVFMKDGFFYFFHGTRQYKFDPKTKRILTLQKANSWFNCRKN
Excerpt: (§1) Blank cells indicate lack of data only.

[2] = biological target: T2, MMP-2 (72 kDa gelatinase, gelatinase A) (Homo sapiens, UniProt P08253); assay: In vitro metalloprotease inhibition, MMP-2
T2 sequence (P08253 110-660): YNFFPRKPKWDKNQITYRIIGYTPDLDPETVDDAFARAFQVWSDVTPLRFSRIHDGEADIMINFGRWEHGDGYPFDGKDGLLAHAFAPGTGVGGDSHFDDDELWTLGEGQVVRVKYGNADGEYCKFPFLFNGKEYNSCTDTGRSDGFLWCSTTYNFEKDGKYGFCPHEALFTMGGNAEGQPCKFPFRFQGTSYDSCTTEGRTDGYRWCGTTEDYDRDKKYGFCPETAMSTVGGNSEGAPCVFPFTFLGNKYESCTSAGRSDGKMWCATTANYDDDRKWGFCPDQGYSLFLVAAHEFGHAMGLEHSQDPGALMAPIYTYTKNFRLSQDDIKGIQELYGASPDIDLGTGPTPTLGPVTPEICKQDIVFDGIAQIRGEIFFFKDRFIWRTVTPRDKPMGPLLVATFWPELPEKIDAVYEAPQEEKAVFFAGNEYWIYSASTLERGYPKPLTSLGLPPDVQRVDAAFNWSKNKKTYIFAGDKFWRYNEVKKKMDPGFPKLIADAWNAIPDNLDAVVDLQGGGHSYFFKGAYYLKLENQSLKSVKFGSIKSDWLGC

MMP-3 (Stromelysin-1) = MMP-3 (Stromelysin-1) (Homo sapiens, UniProt P08254); assay: In vitro metalloprotease inhibition, MMP-3
Excerpt: as §1

MMP-13 (collagenase-3) = MMP-13 (collagenase-3) (Homo sapiens, UniProt P45452); assay: In vitro metalloprotease inhibition, MMP-13

MMP-3 (Stromelysin-1), sequence (P08254 100-477, species assumed): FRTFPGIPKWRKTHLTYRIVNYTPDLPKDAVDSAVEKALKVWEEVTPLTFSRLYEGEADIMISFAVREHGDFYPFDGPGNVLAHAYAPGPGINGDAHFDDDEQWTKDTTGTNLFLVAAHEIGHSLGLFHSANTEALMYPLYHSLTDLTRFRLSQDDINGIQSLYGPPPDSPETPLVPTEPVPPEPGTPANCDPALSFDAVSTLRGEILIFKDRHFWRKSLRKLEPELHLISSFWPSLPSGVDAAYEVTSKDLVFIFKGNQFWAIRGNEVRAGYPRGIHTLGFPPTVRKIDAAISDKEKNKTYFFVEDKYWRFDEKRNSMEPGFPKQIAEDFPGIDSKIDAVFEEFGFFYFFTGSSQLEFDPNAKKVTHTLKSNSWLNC

SMILES | IC50 [1] [nM] | IC50 [2] [nM] | IC50 (MMP-3 (Stromelysin-1)) [nM] | IC50 (MMP-13 (collagenase-3)) [nM]
COCCOC(=O)N1CCN(S(=O)(=O)c2ccc(Oc3ccc(Cl)cc3)c(F)c2)[C@@H](C(=O)NO)C1 [Entry 4] | 50 to 1000 | < 50 | < 50 | < 50
CCOC(=O)N1CCN(CCS(=O)(=O)N2CCN(S(=O)(=O)c3cc(F)c(Oc4ccc(Cl)cc4)c(F)c3)[C@@H](C(=O)NO)C2)CC1 [Entry 56] | 1000 to 20000 | < 50 | 50 to 1000 | < 50
O=C(NO)[C@H]1CN(C(=O)N2CCOCC2)CCN1S(=O)(=O)c1ccc(Oc2ccc(F)cc2)c(F)c1 [Entry 8] | 50 to 1000 | < 50 | < 50 | < 50
CCOC(=O)N1CCN(CC(=O)N2CCN(S(=O)(=O)c3cc(F)c(Oc4ccc(Cl)cc4)c(F)c3)[C@@H](C(=O)NO)C2)CC1 [Entry 23] | > 20000 | < 50 | 1000 to 20000 | < 50
CNC(=O)CN1CCN(S(=O)(=O)c2cc(F)c(Oc3ccc(Cl)cc3)c(F)c2)[C@@H](C(=O)NO)C1 [Entry 19] | > 20000 | < 50 | 50 to 1000 | < 50
CN1CCN(CC(=O)N2CCN(S(=O)(=O)c3cc(F)c(Oc4ccc(Cl)cc4)c(F)c3)[C@@H](C(=O)NO)C2)CC1 [Entry 24] | > 20000 | < 50 | 1000 to 20000 | < 50
CN1CCN(C(=O)NS(=O)(=O)N2CCN(S(=O)(=O)c3cc(F)c(Oc4ccc(Cl)cc4)c(F)c3)[C@@H](C(=O)NO)C2)CC1 [Entry 39] | 50 to 1000 | < 50 | < 50 | < 50
O=C(NO)[C@H]1CN(C(=O)OCCN2CCCCC2)CCN1S(=O)(=O)c1cc(F)c(Oc2ccc(Cl)cc2)c(F)c1 [Entry 27] | 1000 to 20000 | < 50 | 50 to 1000 | < 50
COCCOC(=O)N1CCN(S(=O)(=O)c2ccc(Oc3ccc(F)cc3)nc2)[C@@H](C(=O)NO)C1 [Entry 65] | < 50 | < 50 | < 50 | < 50
O=C(NO)[C@H]1CN(C(=O)NCCN2CCCC2)CCN1S(=O)(=O)c1cc(F)c(Oc2ccc(Cl)cc2)c(F)c1 [Entry 17] | 1000 to 20000 | < 50 | 50 to 1000 | < 50
O=C(NO)[C@H]1CN(C(=O)c2ccncc2)CCN1S(=O)(=O)c1cc(F)c(Oc2ccc(Cl)cc2)c(F)c1 [Entry 42] | 1000 to 20000 | < 50 | 1000 to 20000 | < 50
CN1CCN(S(=O)(=O)c2cc(F)c(Oc3ccc(F)cc3)c(F)c2)[C@@H](C(=O)NO)C1 [Entry 14] | > 20000 | < 50 | > 20000 | < 50
O=C(NO)[C@H]1CN(C(=O)N2CCOCC2)CCN1S(=O)(=O)c1ccc(-c2cccc(F)c2)nc1 [Entry 58] | 50 to 1000 | < 50 | 50 to 1000 | < 50
O=C(NO)[C@H]1CN(C(=O)N2CCOCC2)CCN1S(=O)(=O)c1ccc(Oc2ccc(F)cc2)cc1 [Entry 2] | < 50 | < 50 | < 50 | < 50
O=C(NO)[C@H]1CN(C(=O)Cc2cccnc2)CCN1S(=O)(=O)c1cc(F)c(Oc2ccc(Cl)cc2)c(F)c1 [Entry 47] | > 20000 | < 50 | 50 to 1000 | < 50
O=C(NO)[C@H]1CN(C(=O)OCCN2CCCC2)CCN1S(=O)(=O)c1cc(F)c(Oc2ccc(Cl)cc2)c(F)c1 [Entry 18] | > 20000 | < 50 | 50 to 1000 | < 50
CN1CCN(C(=O)N2CCN(S(=O)(=O)c3cc(F)c(Oc4ccc(Cl)cc4)c(F)c3)[C@@H](C(=O)NO)C2)CC1 [Entry 16] | > 20000 | < 50 | 1000 to 20000 | < 50
O=C(NO)[C@H]1CN(S(=O)(=O)CCN2CCOCC2)CCN1S(=O)(=O)c1cc(F)c(Oc2ccc(Cl)cc2)c(F)c1 [Entry 57] | > 20000 | 50 to 1000 | 1000 to 20000 | 50 to 1000
